Data reported in US11825838B2, “Tricyclic carboxamides for controlling arthropods” (Bayer CropScience Aktiengesellschaft, priority 2017, dated 2023).

Tests used:
Format in all cases: in vivo
[1] = test system: Anopheles gambiae strain RSPH (homozygot kdr); assay: Anopheles test (ANPHGB surface treatment); details: application rate 100 mg/m^2, glazed tile, exposure 30 minutes, 24 hours after contact, read-out: efficacy (mortality)
Experimental: Anopheles Test (ANPHGB Surface Treatment)
(§1) Solvent: acetone+2000 ppm rapeseed oil methyl ester (RME)
(§2) To produce a suitable active compound formulation, the active compound is dissolved in the solvent (2 mg/ml). The active compound formulation is pipetted onto a glazed tile and, after it has dried off, adult mosquitoes of the species Anopheles gambiae strain RSPH (homozygot kdr) are placed onto the treated tile. The exposure time is 30 minutes.
(§3) 24 hours after contact with the treated surface, mortality in % is determined. 100% means that all mosquitoes have been killed; 0% means that none of the mosquitoes have been killed.

[2] = test system: Boophilus microplus; assay: Boophilus microplus injection test; details: application rate 20 μg/animal, assessed after 7 days by laying of fertile eggs
Experimental: Boophilus microplus—Injection Test
(§4) Solvent: dimethyl sulfoxide
To produce a suitable active compound preparation, 10 mg of active compound are mixed with 0.5 ml of solvent and the concentrate is diluted to the desired concentration with solvent.
1 μl of the active ingredient solution is injected into the abdomen of 5 engorged adult female cattle ticks (Boophilus microplus). The animals are transferred into dishes and kept in a climate-controlled room.
Efficacy is assessed after 7 days by laying of fertile eggs. Eggs which are not visibly fertile are stored in a climate-controlled cabinet until the larvae hatch after about 42 days. An efficacy of 100% means that none of the ticks has laid any fertile eggs; 0% means that all the eggs are fertile.

[3] = test system: Ctenocephalides felis; assay: Ctenocephalides felis oral test; details: application rate 100 ppm in citrated cattle blood, after 2 days
Experimental: Ctenocephalides felis—Oral Test
as §4
To produce a suitable active ingredient formulation, 10 mg of active ingredient are mixed with 0.5 ml of dimethyl sulfoxide. Dilution with citrated cattle blood gives the desired concentration.
About 20 unfed adult cat fleas (Ctenocephalides felis) are placed into a chamber which is closed at the top and bottom with gauze. A metal cylinder whose bottom end is closed with parafilm is placed onto the chamber. The cylinder contains the blood/active ingredient formulation, which can be imbibed by the fleas through the parafilm membrane.
After 2 days, the rate of extermination in % is determined. 100% means that all of the fleas have been killed; 0% means that none of the fleas have been killed.

[4] = test system: Lucilia cuprina; assay: Lucilia cuprina test; details: application rate 100 ppm, L1 larvae, after 2 days
Experimental: as §4
(§5) To produce a suitable active ingredient formulation, 10 mg of active ingredient are mixed with 0.5 ml of dimethyl sulfoxide, and the concentrate is diluted with water to the desired concentration.
About 20 L1 larvae of the Australian sheep blowfly (Lucilia cuprina) are transferred into a test vessel containing minced horsemeat and the active compound preparation of the desired concentration.
After 2 days, the rate of extermination in % is determined. 100% means that all the larvae have been killed; 0% means that no larvae have been killed.

[5] = test system: Phaedon cochleariae; assay: Phaedon cochleariae spray test (PHAECO); details: application rate 100 g/ha, spray, after 7 days; for pest or weed control at 100 g/ha: Phaedon cochleariae, 168 h, read-out: efficacy
Experimental: Phaedon cochleariae—Spray Test
(§6) To produce a suitable active ingredient formulation, 1 part by weight of active ingredient is dissolved with the specified parts by weight of solvent and made up to the desired concentration with water containing an emulsifier concentration of 1000 ppm. To produce further test concentrations, the formulation is diluted with emulsifier-containing water.
After 7 days, the efficacy in % is determined. 100% means that all the beetle larvae have been killed; 0% means that no beetle larvae have been killed.
Phaedon cochleariae—Spray Test (PHAECO)
as §6, with “compound” for “ingredient”
Discs of Chinese cabbage leaves (Brassica pekinensis) are sprayed with an active compound formulation of the desired concentration and, after drying, populated with larvae of the mustard beetle (Phaedon cochleariae).
After the desired time, the efficacy in % is determined. 100% means that all the beetle larvae have been killed; 0% means that no beetle larvae have been killed.

[6] = test system: Rhipicephalus sanguineus; assay: Rhipicephalus sanguineus in vitro contact test with adult brown dog ticks; details: application rate 5 μg/cm^2 (=500 g/ha), after 48 h, adult dog ticks dead or moribund
Experimental: Rhipicephalus sanguineus—In Vitro Contact Tests with Adult Brown Dog Ticks
(§7) For the coating of the test tubes, 9 mg of active ingredient are first dissolved in 1 ml of acetone p.a. and then diluted to the desired concentration with acetone p.a. 250 μl of the solution are distributed homogeneously on the inner walls and the base of a 25 ml glass tube by turning and rocking on an orbital shaker (rocking rotation at 30 rpm for 2 h). With 900 ppm of active ingredient solution and internal surface area 44.7 cm^2, given homogeneous distribution, an area-based dose of 5 μg/cm^2 is achieved.
After the solvent has evaporated off, the tubes are populated with 5-10 adult dog ticks (Rhipicephalus sanguineus), sealed with a perforated plastic lid and incubated in a horizontal position in the dark at room temperature and ambient humidity. After 48 h, efficacy is determined. To this end, the ticks are knocked to the base of the tube and incubated on a hotplate at 45-50° C. for not more than 5 min. Ticks which remain motionless on the base or move in such an uncoordinated manner that they are unable to deliberately avoid the heat by climbing upwards are considered to be dead or moribund.
An efficacy of 100% means that all the ticks were dead or moribund. 0% efficacy means that none of the ticks were harmed.

[7] = test system: Spodoptera frugiperda; assay: Spodoptera frugiperda spray test (SPODFR); details: application rate 100 g/ha, spray, after 7 days; for pest or weed control at 100 g/ha: Spodoptera frugiperda, 168 h, read-out: efficacy
Experimental: Spodoptera frugiperda—Spray Test
as §6
Leaf discs of maize (Zea mays) are sprayed with an active ingredient formulation of the desired concentration and, after drying, populated with caterpillars of the armyworm (Spodoptera frugiperda).
After 7 days, the efficacy in % is determined. 100% means that all the caterpillars have been killed; 0% means that no caterpillar has been killed.
Spodoptera frugiperda—Spray Test (SPODFR)
as §6, with “compound” for “ingredient”
Leaf discs of maize (Zea mays) are sprayed with an active compound formulation of the desired concentration and, after drying, populated with caterpillars of the armyworm (Spodoptera frugiperda).
After the desired time, the efficacy in % is determined. 100% means that all the caterpillars have been killed; 0% means that no caterpillar has been killed.

[8] = test system: Tetranychus urticae; assay: Tetranychus urticae spray test, OP-resistant (TETRUR); details: spray, after 6 days
Experimental: Tetranychus urticae—Spray Test, OP-Resistant
as §6
Discs of bean leaves (Phaseolus vulgaris) infested with all stages of the greenhouse red spider mite (Tetranychus urticae) are sprayed with an active compound preparation of the desired concentration.
After 6 days, the efficacy in % is determined. 100% means that all the spider mites have been killed; 0% means that no spider mites have been killed.
Tetranychus urticae—Spray Test; OP-Resistant (TETRUR)
as §6, with “compound” for “ingredient”
Discs of bean leaves (Phaseolus vulgaris) infested with all stages of the greenhouse red spider mite (Tetranychus urticae) are sprayed with an active compound formulation of the desired concentration.
After the desired time, the efficacy in % is determined. 100% means that all the spider mites have been killed; 0% means that no spider mites have been killed.

[9] = test system: Myzus persicae; assay: Myzus persicae oral test; details: application rate 4 ppm, after 5 days
Experimental: To produce a suitable active compound preparation, 1 part by weight of active compound is dissolved with the specified amounts by weight of solvent and made up to the desired concentration with water.
50 ul of the active compound preparation are transferred to microtiter plates and made up to a final volume of 200 μl with 150 μl of IPL41 insect medium (33%+15% sugar). Then the plates are sealed with parafilm through which a mixed population of the green peach aphid (Myzus persicae), which is located in a second microtiter plate, can pierce and absorb the solution.
(§8) After 5 days, the efficacy in % is determined. 100% means that all the aphids have been killed; 0% means that no aphids have been killed.

[10] = test system: Myzus persicae; assay: Myzus persicae spray test (MYZUPE); details: application rate 100 g/ha, spray, after 5 days
Experimental: Myzus persicae—Spray Test
as §6
Discs of Chinese cabbage leaves (Brassica pekinensis) infested by all stages of the green peach aphid (Myzus persicae) are sprayed with an active compound preparation of the desired concentration.
as §8
Myzus Persicae—Spray Test (MYZUPE)
as §6, with “compound” for “ingredient”
Discs of Chinese cabbage leaves (Brassica pekinensis) infested with all stages of the green peach aphid (Myzus persicae) are sprayed with an active compound formulation of the desired concentration.
After the desired time, the efficacy in % is determined. 100% means that all the aphids have been killed; 0% means that no aphids have been killed.

[11] = test system: Aedes aegypti strain MONHEIM; assay: Aedes test (AEDSAE surface treatment); details: application rate 100 mg/m^2, glazed tile, exposure 30 minutes, 24 hours after contact, read-out: efficacy (mortality)
Experimental: Aedes Test (AEDSAE Surface Treatment)
as §1
as §2, with “Aedes aegypti” for “Anopheles gambiae”, “MONHEIM” for “RSPH (homozygot kdr)”
as §3

[12] = test system: Anopheles funestus strain FUMOZ-R; assay: Anopheles test (ANPHFU surface treatment); details: application rate 100 mg/m^2, glazed tile, exposure 30 minutes, 24 hours after contact, read-out: efficacy (mortality)
Experimental: Anopheles Test (ANPHFU Surface Treatment)
as §1
as §2, with “funestus” for “gambiae”, “FUMOZ-R (Hunt et al., Med Vet Entomol. 2005 September; 19(3):271-5)” for “RSPH (homozygot kdr)”
as §3

[13] = test system: Musca domestica; assay: Musca domestica test; details: application rate 100 ppm, adult houseflies, after 2 days
Experimental: as §4, §5
Vessels containing a sponge treated with sugar solution and the active ingredient formulation of the desired concentration are populated with 10 adult houseflies (Musca domestica).
After 2 days, the rate of extermination in % is determined. 100% means that all of the flies have been killed; 0% means that none of the flies have been killed.

[14] = test system: Ctenocephalides felis; assay: Ctenocephalides felis in vitro contact test with adult cat fleas; details: application rate 5 μg/cm^2 (=500 g/ha), after 48 h, adult cat fleas dead or moribund
Experimental: Ctenocephalides felis—In Vitro Contact Tests with Adult Cat Fleas
as §7
After the solvent has evaporated off, the tubes are populated with 5-10 adult cat fleas (Ctenocephalides felis), sealed with a perforated plastic lid and incubated in a horizontal position at room temperature and ambient humidity. After 48 h, efficacy is determined. To this end, the tubes are stood upright and the fleas are knocked to the base of the tube. Fleas which remain motionless at the base or move in an uncoordinated manner are considered to be dead or moribund.
100% efficacy means that all the fleas were dead or moribund. 0% efficacy means that no fleas were harmed.

| Compound | mortality at 100 mg/m2 [1] [%] | efficacy [2] [%] | efficacy (rate of extermination) [3] [%] | efficacy (rate of extermination) [4] [%] | pest or weed control at 100 g/ha [5] [%] | efficacy [6] [%] | pest or weed control at 100 g/ha [7] [%] | efficacy ([8]; application rate 20 g/ha) [%] | efficacy ([8]; application rate 100 g/ha) [%] | efficacy [9] [%] | efficacy [10] [%] | mortality at 100 mg/m2 [11] [%] | mortality at 100 mg/m2 [12] [%] | efficacy (rate of extermination) [13] [%] | efficacy [14] [%] | efficacy [5] [%] | efficacy [7] [%] |
| --- | --- | --- | --- | --- | --- | --- | --- | --- | --- | --- | --- | --- | --- | --- | --- | --- | --- |
| Cn1cc(-c2cnn(-c3c(Cl)cc(C(F)(C(F)(F)F)C(F)(F)F)cc3Cl)c2)cc1C(=O)NC1CC1 [I-T1-3, N-cyclopropyl-4-{1-[2,6-dichloro-4-(1,1,1,2,3,3,3-heptafluoropropan-2-yl)phenyl]-1H-pyrazol-4-yl}-1-methyl-1H-pyrrole-2-carboxamide] | 80 to 100 | 100 | 100 | 100 | 100 | 100 | 100 |  |  |  |  |  |  |  |  |  |  |
| O=C(NC1CC1)c1cc(-c2cnn(-c3c(Cl)cc(C(F)(C(F)(F)F)C(F)(F)F)cc3Cl)c2)sc1Cl [I-T1-16, 2-chloro-N-cyclopropyl-5-{1-[2,6-dichloro-4-(1,1,1,2,3,3,3-heptafluoropropan-2-yl)phenyl]-1H-pyrazol-4-yl}thiophene-3-carboxamide] |  |  |  |  | 100 |  | 100 | 90 | 100 | 100 | 100 |  |  |  |  |  |  |
| Cn1c(C(=O)NC2CC2)cc(-c2cnn(-c3c(Cl)cc(C(F)(C(F)(F)F)C(F)(F)F)cc3Cl)c2)c1Cl [I-T1-9, 5-chloro-N-cyclopropyl-4-{1-[2,6-dichloro-4-(1,1,1,2,3,3,3-heptafluoropropan-2-yl)phenyl]-1H-pyrazol-4-yl}-1-methyl-1H-pyrrole-2-carboxamide] | 80 to 100 |  |  |  | 100 |  | 100 |  |  |  |  | 80 to 100 | 80 to 100 |  |  |  |  |
| N#CC1(NC(=O)c2csc(-c3cnn(-c4c(Cl)cc(C(F)(C(F)(F)F)C(F)(F)F)cc4Cl)c3)c2)CC1 [I-T1-13, N-(1-cyanocyclopropyl)-5-{1-[2,6-dichloro-4-(1,1,1,2,3,3,3-heptafluoropropan-2-yl)phenyl]-1H-pyrazol-4-yl}thiophene-3-carboxamide] |  | 100 | 100 | 100 | 100 |  | 100 | 90 | 100 |  |  | 80 to 100 |  | 100 |  |  |  |
| O=C(NC1CC1)c1csc(-c2cnn(-c3c(Cl)cc(C(F)(C(F)(F)F)C(F)(F)F)cc3Cl)c2)c1 [I-T1-12, N-cyclopropyl-5-{1-[2,6-dichloro-4-(1,1,1,2,3,3,3-heptafluoropropan-2-yl)phenyl]-1H-pyrazol-4-yl}thiophene-3-carboxamide] |  |  | 100 | 100 | 100 | 100 | 100 |  |  | 100 |  |  |  | 100 | 100 |  |  |
| Cc1sc(-c2cnn(-c3c(Cl)cc(C(F)(C(F)(F)F)C(F)(F)F)cc3Cl)c2)cc1C(=O)NC1(C#N)CC1 [I-T1-10] |  | 100 | 100 | 100 |  |  |  | 100 | 100 | 100 |  |  |  | 100 |  | 100 | 100 |
